“Also recorded” adds a separate entry of the source.
Tests used:
S6 activation = S6 activation in Tsc1-deficient astrocytes; assay type: cell-based
Text: FIG. 8 depicts images showing that Rheb pharmacologic inhibition blocks mTOR pathway activation in Tsc1-deficient, but not neurofibromin 1 deficient, astrocytes.
In each case, the abnormal Tsc1^−/− and neurofibromin 1^−/− astrocyte phenotypes were reversed by mTOR inhibition (rapamycin treatment). […] These studies provide preliminary evidence for a TSC/Rheb-independent mechanism.

[1] = tested on: mTOR pathway activation (S6 phosphorylation); experiment: S6 phosphorylation (mTOR pathway activation) in neurofibromin 1 deficient astrocytes, phospho-specific antibodies; assay type: cell-based, mouse; conditions: Nf1-/- astrocytes; concentration not given
Text: Evidence exists for direct activation of mTOR signaling by Akt as well as indirect activation of mTOR by Akt through the tuberous sclerosis complex (TSC)/Rheb pathway. Studies have shown that the mTOR activation resulting from neurofibromin loss in astrocytes can be reversed by restoring NF1-GAP activity (NF1 GRD), blocking K-RAS activity (K-RASN17), or inhibiting PI-3K activation of Akt.

## CSCC[C@H](NC(=O)c1ccc(NC[C@@H](N)CS)cc1-c1ccccc1)C(=O)O [FTI-276]
S6 activation
  S6 activation: effectively blocks S6 activation; also recorded: reduced S6 activation
[1]
  S6 activation / phosphorylation (mTOR pathway activation): did not reduce S6 hyperactivation; also recorded: no effect on S6 activity
